Data as given in patent US20250312462A1, “PAK1 DEGRADERS AND METHODS OF USE THEREOF” (INSTITUTE FOR CANCER RESEARCH D/B/A THE RESEARCH INSTITUTE …, priority 2022, published 2025).

Key:
QSK = QSK (Homo sapiens, UniProt Q9Y2K2); test: KINOMEscan; settings: read-out: Percent Control
Experimental: (§1) The kinase engagement assay (KINOMEscan®) was performed by DiscoverX assessing binding abilities toward a set of kinases.

MLK2 = MLK2 (Homo sapiens, UniProt Q02779); test: KINOMEscan; settings: read-out: Percent Control
Experimental: as §1

PIP5K1C = PIP5K1C (Homo sapiens, UniProt O60331); test: KINOMEscan; settings: read-out: Percent Control
Experimental: as §1

ITK = ITK (Homo sapiens, UniProt Q08881); test: KINOMEscan; settings: read-out: Percent Control
Experimental: as §1

CSNK1A1 = CSNK1A1 (Homo sapiens, UniProt P48729); test: KINOMEscan; settings: read-out: Percent Control
Experimental: as §1

FLT3-autoinhibited = FLT3-autoinhibited (Homo sapiens, UniProt P36888); test: KINOMEscan; settings: read-out: Percent Control
Experimental: as §1

PIK3CA(C420R) = PIK3CA(C420R) (Homo sapiens, UniProt P42336, C420R); test: KINOMEscan; settings: read-out: Percent Control
Experimental: as §1

HIPK3 = HIPK3 (Homo sapiens, UniProt Q9H422); test: KINOMEscan; settings: read-out: Percent Control
Experimental: as §1

FAK = FAK (Homo sapiens, UniProt Q05397); test: KINOMEscan; settings: read-out: Percent Control
Experimental: as §1

VEGFR2 = VEGFR2 (Homo sapiens, UniProt P35968); test: KINOMEscan; settings: read-out: Percent Control
Experimental: as §1

ERK3 = ERK3 (Homo sapiens, UniProt Q16659); test: KINOMEscan; settings: read-out: Percent Control
Experimental: as §1

YES = YES (Homo sapiens, UniProt P07947); test: KINOMEscan; settings: read-out: Percent Control
Experimental: as §1

RIOK1 = RIOK1 (Homo sapiens, UniProt Q9BRS2); test: KINOMEscan; settings: read-out: Percent Control
Experimental: as §1

[1] = biological target: ABL1(Q252H)-nonphosphorylated (Homo sapiens, UniProt P00519, Q252H); test: KINOMEscan; settings: read-out: Percent Control
Experimental: as §1

[2] = biological target: JAK1(JH2domain-pseudokinase) (Homo sapiens, UniProt P23458); test: KINOMEscan; settings: read-out: Percent Control
Experimental: as §1

MST2 = MST2 (Homo sapiens, UniProt Q13188); test: KINOMEscan; settings: read-out: Percent Control
Experimental: as §1

ERK = ERK phosphorylation in OVCAR3 and MCF7 cells, immunoblot; type: cell-based; settings: 10 nM, 24 hours
Experimental: FIG. 3A is a series of Western blots showing OVCAR3 and MCF7 cells that were treated for 24 hours with DMSO, 10 nM BJG-05-039, or NVS-PAK1-1 as indicated. MEK and ERK phosphorylation was assessed by immunoblot with the indicated phosphorylation-specific antibodies. FIG. 3B is a Western blot showing MCF7 cells that were stably transduced with a doxycycline-regulated shRNA against PAK1. shRNA expression was induced by the indicated amounts of doxycycline and immunoblots were performed using cell lysates 24 hours post doxycycline addition. FIG. 3C is a Western blot showing MCF7 cells that were treated with vehicle or […] doxycycline. Immunoblots were performed using cell lysates 24 hours post doxycycline addition.
Cells were washed once in PBS and lysed in RIPA buffer (50 mM Tris-HCl, 150 mM NaCl, 0.25% (w/v) sodium deoxycholate, 1% (w/v) NP-40, pH 7.5) containing protease inhibitor cocktail (Roche) and phosphatase inhibitor cocktail (Roche) for 30 minutes on ice. […]
In certain cell lines, PAK1 has well-characterized functions in regulating proliferative signaling. […] As a readout for anti-PAK activity, phosphorylation of MEK1 at S298 was assessed, a direct target site for Group A PAKs (Coles, et al. (2002) Oncogene 21:2236-2244; Slack-Davis, et al. (2003) J. Cell. Biol., 162:281-291), as well as phosphorylation of the downstream target of MEK, ERK. […]

AAK1 = AAK1 (Homo sapiens, UniProt Q2M2I8); test: KINOMEscan; settings: read-out: Percent Control
Experimental: as §1

CAMK2B = CAMK2B (Homo sapiens, UniProt Q13554); test: KINOMEscan; settings: read-out: Percent Control
Experimental: as §1

MLK1 = MLK1 (Homo sapiens, UniProt P80192); test: KINOMEscan; settings: read-out: Percent Control
Experimental: as §1

PAK2 = PAK2 (Homo sapiens, UniProt Q13177); test: KINOMEscan; settings: read-out: Percent Control
Experimental: as §1

PIM2 = PIM2 (Homo sapiens, UniProt Q9P1W9); test: KINOMEscan; settings: read-out: Percent Control
Experimental: as §1

NEK10 = NEK10 (Homo sapiens, UniProt Q6ZWH5); test: KINOMEscan; settings: read-out: Percent Control
Experimental: as §1

DRAK1 = DRAK1 (Homo sapiens, UniProt Q9UEE5); test: KINOMEscan; settings: read-out: Percent Control
Experimental: as §1

BUB1 = BUB1 (Homo sapiens, UniProt O43683); test: KINOMEscan; settings: read-out: Percent Control
Experimental: as §1

PRKCQ = PRKCQ (Homo sapiens, UniProt Q04759); test: KINOMEscan; settings: read-out: Percent Control
Experimental: as §1

IKK-alpha = IKK-alpha (Homo sapiens, UniProt O15111); test: KINOMEscan; settings: read-out: Percent Control
Experimental: as §1

Chain of PIM2 (Q9P1W9 whole entry): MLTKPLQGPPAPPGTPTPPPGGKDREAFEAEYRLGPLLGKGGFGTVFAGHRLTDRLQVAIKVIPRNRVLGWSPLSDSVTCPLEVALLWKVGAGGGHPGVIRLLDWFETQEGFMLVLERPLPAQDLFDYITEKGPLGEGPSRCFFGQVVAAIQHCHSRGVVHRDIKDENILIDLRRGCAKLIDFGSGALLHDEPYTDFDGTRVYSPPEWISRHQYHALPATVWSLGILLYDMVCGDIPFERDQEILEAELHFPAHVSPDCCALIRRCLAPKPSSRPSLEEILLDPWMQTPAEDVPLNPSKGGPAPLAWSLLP
Chain of DRAK1 (Q9UEE5 whole entry): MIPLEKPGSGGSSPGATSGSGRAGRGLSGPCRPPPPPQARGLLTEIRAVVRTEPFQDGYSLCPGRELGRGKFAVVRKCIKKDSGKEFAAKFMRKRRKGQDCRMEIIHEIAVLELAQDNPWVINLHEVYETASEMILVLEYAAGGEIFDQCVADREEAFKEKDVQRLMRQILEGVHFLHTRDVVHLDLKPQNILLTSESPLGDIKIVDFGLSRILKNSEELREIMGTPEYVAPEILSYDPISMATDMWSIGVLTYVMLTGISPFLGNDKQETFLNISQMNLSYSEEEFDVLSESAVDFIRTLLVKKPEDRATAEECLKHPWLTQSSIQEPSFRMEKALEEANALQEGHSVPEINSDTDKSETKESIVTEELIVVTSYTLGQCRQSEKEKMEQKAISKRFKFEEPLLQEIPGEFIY
Chain of QSK (Q9Y2K2 whole entry): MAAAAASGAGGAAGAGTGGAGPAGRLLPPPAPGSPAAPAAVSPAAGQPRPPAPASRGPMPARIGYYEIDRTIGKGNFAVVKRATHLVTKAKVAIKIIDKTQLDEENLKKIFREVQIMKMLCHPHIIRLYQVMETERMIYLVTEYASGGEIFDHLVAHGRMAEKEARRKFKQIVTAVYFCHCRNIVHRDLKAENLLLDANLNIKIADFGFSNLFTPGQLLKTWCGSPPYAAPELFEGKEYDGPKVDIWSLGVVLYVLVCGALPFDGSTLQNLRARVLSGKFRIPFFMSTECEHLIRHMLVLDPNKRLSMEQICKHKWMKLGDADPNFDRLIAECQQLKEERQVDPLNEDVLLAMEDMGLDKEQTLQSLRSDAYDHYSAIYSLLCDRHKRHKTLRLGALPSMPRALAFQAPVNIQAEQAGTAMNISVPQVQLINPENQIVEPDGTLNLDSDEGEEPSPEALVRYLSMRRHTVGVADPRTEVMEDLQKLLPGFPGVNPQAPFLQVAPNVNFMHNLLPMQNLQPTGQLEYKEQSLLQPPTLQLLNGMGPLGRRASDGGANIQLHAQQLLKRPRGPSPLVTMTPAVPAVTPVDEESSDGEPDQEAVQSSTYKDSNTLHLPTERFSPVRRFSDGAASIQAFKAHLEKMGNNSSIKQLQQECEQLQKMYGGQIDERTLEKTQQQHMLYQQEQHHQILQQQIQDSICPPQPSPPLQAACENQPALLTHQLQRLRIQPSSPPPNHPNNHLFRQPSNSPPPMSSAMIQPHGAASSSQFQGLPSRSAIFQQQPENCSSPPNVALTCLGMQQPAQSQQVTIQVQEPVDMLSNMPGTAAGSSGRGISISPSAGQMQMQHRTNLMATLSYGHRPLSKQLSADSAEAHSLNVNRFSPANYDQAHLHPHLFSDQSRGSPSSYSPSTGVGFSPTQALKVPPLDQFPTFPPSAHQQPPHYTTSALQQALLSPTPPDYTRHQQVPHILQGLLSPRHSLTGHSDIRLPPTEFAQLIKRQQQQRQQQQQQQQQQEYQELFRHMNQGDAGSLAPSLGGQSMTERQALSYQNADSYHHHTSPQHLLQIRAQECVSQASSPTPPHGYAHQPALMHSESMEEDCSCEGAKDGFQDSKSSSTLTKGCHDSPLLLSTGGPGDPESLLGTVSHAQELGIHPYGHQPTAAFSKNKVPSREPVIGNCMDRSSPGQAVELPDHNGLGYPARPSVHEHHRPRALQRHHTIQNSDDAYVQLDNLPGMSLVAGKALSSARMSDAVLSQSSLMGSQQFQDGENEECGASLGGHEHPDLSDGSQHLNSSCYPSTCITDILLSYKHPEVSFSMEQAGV
Chain of CSNK1A1 (P48729 whole entry): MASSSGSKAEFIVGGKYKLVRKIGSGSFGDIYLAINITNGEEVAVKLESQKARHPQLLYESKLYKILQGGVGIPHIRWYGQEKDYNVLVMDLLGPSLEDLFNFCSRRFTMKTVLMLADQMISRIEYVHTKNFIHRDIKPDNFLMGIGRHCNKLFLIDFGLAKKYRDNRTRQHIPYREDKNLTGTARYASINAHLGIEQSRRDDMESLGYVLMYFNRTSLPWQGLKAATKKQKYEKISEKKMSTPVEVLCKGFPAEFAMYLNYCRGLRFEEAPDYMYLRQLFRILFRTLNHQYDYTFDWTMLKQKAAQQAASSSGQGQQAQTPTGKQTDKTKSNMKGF
Chain of FAK (Q05397 whole entry): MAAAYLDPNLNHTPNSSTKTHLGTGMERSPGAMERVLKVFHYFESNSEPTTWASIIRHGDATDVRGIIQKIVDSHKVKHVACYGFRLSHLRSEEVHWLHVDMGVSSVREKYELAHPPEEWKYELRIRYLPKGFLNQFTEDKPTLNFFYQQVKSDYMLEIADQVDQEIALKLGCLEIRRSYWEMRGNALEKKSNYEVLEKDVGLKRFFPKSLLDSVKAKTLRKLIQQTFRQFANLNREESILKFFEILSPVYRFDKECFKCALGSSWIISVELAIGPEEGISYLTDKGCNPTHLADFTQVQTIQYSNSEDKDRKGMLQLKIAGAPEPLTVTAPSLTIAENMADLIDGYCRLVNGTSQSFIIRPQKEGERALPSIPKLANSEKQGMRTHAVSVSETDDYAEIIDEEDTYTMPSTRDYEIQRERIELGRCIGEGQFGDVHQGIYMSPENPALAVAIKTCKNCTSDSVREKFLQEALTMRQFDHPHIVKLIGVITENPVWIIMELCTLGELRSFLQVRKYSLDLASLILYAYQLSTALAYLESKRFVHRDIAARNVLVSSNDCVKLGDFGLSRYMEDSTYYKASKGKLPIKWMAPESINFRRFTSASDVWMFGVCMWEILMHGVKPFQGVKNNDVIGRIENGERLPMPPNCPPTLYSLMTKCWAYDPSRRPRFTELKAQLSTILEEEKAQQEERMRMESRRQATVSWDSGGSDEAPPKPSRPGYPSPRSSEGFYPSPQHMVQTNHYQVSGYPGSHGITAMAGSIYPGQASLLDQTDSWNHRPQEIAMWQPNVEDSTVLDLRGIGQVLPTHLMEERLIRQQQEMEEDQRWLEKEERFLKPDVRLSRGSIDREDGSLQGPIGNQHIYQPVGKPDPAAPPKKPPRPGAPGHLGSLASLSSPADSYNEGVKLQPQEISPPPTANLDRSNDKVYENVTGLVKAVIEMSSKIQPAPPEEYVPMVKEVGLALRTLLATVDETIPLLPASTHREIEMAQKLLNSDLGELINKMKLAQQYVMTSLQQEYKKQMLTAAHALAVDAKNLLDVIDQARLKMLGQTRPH
Chain of NEK10 (Q6ZWH5 whole entry): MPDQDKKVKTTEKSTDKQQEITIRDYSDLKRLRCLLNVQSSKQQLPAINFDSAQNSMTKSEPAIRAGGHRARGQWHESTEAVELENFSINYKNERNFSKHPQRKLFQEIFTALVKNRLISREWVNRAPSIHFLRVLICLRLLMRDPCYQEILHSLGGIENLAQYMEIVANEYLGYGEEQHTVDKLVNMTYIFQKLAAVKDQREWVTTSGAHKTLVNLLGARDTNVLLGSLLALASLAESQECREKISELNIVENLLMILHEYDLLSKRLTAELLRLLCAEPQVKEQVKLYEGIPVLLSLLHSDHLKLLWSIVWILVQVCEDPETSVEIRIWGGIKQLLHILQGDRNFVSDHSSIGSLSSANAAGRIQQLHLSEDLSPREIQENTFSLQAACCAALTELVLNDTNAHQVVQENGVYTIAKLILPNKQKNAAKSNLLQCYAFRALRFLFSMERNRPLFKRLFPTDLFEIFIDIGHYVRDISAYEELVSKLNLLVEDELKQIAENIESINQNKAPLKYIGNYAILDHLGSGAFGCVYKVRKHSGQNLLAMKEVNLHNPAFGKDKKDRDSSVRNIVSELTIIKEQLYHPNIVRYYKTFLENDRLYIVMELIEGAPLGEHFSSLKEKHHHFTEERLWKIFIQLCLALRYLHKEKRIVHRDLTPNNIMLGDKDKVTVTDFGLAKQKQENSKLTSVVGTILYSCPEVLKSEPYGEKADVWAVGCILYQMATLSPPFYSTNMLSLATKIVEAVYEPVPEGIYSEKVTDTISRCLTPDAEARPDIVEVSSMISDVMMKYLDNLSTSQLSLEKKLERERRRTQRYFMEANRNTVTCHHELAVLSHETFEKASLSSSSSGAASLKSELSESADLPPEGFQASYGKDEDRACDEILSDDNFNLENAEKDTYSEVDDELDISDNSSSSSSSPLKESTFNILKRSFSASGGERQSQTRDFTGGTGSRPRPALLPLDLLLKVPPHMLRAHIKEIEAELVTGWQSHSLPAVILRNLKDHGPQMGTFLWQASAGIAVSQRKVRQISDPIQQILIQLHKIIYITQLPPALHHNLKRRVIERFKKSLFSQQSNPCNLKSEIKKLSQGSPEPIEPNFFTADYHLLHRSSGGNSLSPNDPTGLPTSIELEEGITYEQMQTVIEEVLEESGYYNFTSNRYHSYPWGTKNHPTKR
Chain of JAK1(JH2domain-pseudokinase) (P23458 583-855 limits assumed): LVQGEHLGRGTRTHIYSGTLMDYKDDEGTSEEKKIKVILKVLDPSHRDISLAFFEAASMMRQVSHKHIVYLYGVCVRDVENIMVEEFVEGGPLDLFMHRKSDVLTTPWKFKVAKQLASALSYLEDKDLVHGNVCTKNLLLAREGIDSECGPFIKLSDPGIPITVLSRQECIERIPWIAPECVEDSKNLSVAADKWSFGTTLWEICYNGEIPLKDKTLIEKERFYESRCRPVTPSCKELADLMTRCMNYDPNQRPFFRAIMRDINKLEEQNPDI

`O=C1CCC(N2C(=O)c3cccc(NCCCCCCCCNC(=O)N4CC[C@H](NC5=Nc6cc(F)ccc6N(CC(F)F)c6ccc(Cl)cc65)C4)c3C2=O)C(=O)N1` (stereo partly drawn) [BJG-05-039, (3S)-3-((2-Chloro-5-(2,2-difluoroethyl)-8-fluoro-5H-dibenzo[b,e][1,4]diazepin-11-yl)amino)-N-(8-((2-(2,6-dioxopiperidin-3-yl)-1,3-dioxoisoindolin-4-yl)amino)octyl)pyrrolidine-1-carboxamide] gave a remaining binding at 10 µM (QSK) of 78%, a remaining binding at 10 µM (MLK2) of 97% and a remaining binding at 10 µM (PIP5K1C) of 96%. For the same compound, the remaining binding at 10 µM (ITK) was 91%, the remaining binding at 10 µM (CSNK1A1) was 93% and the remaining binding at 10 µM (FLT3-autoinhibited) was 100%. The remaining binding at 10 µM (PIK3CA(C420R)) was 100%, the remaining binding at 10 µM (HIPK3) was 100% and the remaining binding at 10 µM (FAK) was 65%. For the same compound, the remaining binding at 10 µM (VEGFR2) was 100%, the remaining binding at 10 µM (ERK3) was 64% and the remaining binding at 10 µM (YES) was 79%. It also gave a remaining binding at 10 µM (RIOK1) of 84%, a remaining binding at 10 µM [1] of 87% and a remaining binding at 10 µM [2] of 100%. For the same compound, the remaining binding at 10 µM (MST2) was 80%, the “Phosphorylation of ERK” value (ERK) was “inhibiting phosphorylation of ERK” and the remaining binding at 10 µM (AAK1) was 48%. The remaining binding at 10 µM (CAMK2B) was 46%, the remaining binding at 10 µM (MLK1) was 83% and the remaining binding at 10 µM (PAK2) was 87%. For the same compound, the remaining binding at 10 µM (PIM2) was 82%, the remaining binding at 10 µM (NEK10) was 99% and the remaining binding at 10 µM (DRAK1) was 59%. For the same compound, the remaining binding at 10 µM (BUB1) was 73%, the remaining binding at 10 µM (PRKCQ) was 77% and the remaining binding at 10 µM (IKK-alpha) was 91%.
